Measurements from the OligoGym collection.
HELM strings list units from the 5' end as sugar, base in round brackets, then linkage (d deoxyribose, r ribose, m 2'-O-methyl, p phosphodiester). Strings are as the collection lists them; they lack the last nucleoside at the 3' end of the tested compound. [moe] = 2'-O-(2-methoxyethyl) (MOE); [sp] = phosphorothioate linkage; [m5C] = 5-methylcytosine

Molecular target: PRNP
Assay: mouse, dose not given
Settings: ASO

Point of comparison: “RNA1{[moe](A)[sp].[moe]([m5C])p.[moe](G)p.[moe](T)p.[moe]([m5C])[sp].d([m5C])[sp].d(A)[sp].d(T)[sp].d(T)[sp].d(T)[sp].d(T)[sp].d([m5C])[sp].d(T)[sp].d(G)[sp].d(T)[sp].[moe](G)p.[moe]([m5C])p.[moe](T)[sp].[moe](T)}$$$$ (last 3' nucleoside missing)”, 3 h FOB score 1.75 score 0-7. Against it:
- RNA1{[moe](A)[sp].[moe]([m5C])[sp].[moe](T)p.[moe]([m5C])p.[moe](T)p.[moe](A)p.[moe](T)p.d(G)[sp].d(T)[sp].d(T)[sp].d(T)[sp].d(T)[sp].d([m5C])[sp].d([m5C])[sp].d(A)[sp].d(G)[sp].d(T)[sp].[moe](G)p.[moe]([m5C])}$$$$ (last 3' nucleoside missing) — higher, 4.25 score 0-7
- RNA1{[moe](A)[sp].[moe]([m5C])p.[moe](A)p.[moe](A)p.[moe](T)[sp].d([m5C])[sp].d(T)[sp].d(G)[sp].d(T)[sp].d(T)[sp].d(G)[sp].d(T)[sp].d(G)[sp].d(G)[sp].d(T)[sp].[moe](T)p.[moe]([m5C])p.[moe](A)[sp].[moe](G)}$$$$ (last 3' nucleoside missing) — higher, 6.5 score 0-7
- RNA1{[moe](A)[sp].[moe]([m5C])p.[moe](A)p.[moe](T)p.[moe](T)[sp].d(T)[sp].d(A)[sp].d(T)[sp].d(T)[sp].d(T)[sp].d([m5C])[sp].d(A)[sp].d(T)[sp].d(G)[sp].d(T)[sp].[moe](G)p.[moe]([m5C])p.[moe]([m5C])[sp].[moe](A)}$$$$ (last 3' nucleoside missing) — higher, 3 score 0-7
- RNA1{[moe](A)[sp].[moe]([m5C])p.[moe](T)p.[moe](G)p.[moe](A)[sp].d(A)[sp].d(T)[sp].d(T)[sp].d(T)[sp].d(T)[sp].d([m5C])[sp].d(T)[sp].d([m5C])[sp].d(T)[sp].d([m5C])[sp].[moe]([m5C])p.[moe]([m5C])p.[moe](A)[sp].[moe](G)}$$$$ (last 3' nucleoside missing) — lower, 0 score 0-7
- RNA1{[moe](A)[sp].[moe]([m5C])p.[moe](T)p.[moe](T)p.[moe](G)[sp].d(T)[sp].d([m5C])[sp].d(A)[sp].d(G)[sp].d(T)[sp].d(T)[sp].d(T)[sp].d(T)[sp].d(T)[sp].d([m5C])[sp].[moe]([m5C])p.[moe]([m5C])p.[moe]([m5C])[sp].[moe](A)}$$$$ (last 3' nucleoside missing) — lower, 1 score 0-7
- RNA1{[moe](A)[sp].[moe]([m5C])p.[moe](T)p.[moe](T)p.[moe](G)p.[moe](T)p.d([m5C])[sp].d(A)[sp].d(G)[sp].d(T)[sp].d(T)[sp].d(T)[sp].d(T)[sp].d(T)[sp].d([m5C])[sp].d([m5C])[sp].[moe]([m5C])p.[moe]([m5C])[sp].[moe](A)}$$$$ (last 3' nucleoside missing) — lower, 0.25 score 0-7
- RNA1{[moe](A)[sp].[moe]([m5C])p.[moe](T)p.[moe](T)p.d(G)[sp].d(T)[sp].d([m5C])[sp].d(A)[sp].d(G)[sp].d(T)[sp].d(T)[sp].d(T)[sp].d(T)[sp].d(T)[sp].[moe]([m5C])p.[moe]([m5C])p.[moe]([m5C])p.[moe]([m5C])[sp].[moe](A)}$$$$ (last 3' nucleoside missing) — higher, 2.5 score 0-7
- RNA1{[moe](A)[sp].[moe]([m5C])p.[moe](T)p.[moe]([m5C])p.[moe](T)[sp].d(A)[sp].d(T)[sp].d(G)[sp].d(T)[sp].d(T)[sp].d(T)[sp].d(T)[sp].d([m5C])[sp].[moe]([m5C])p.[moe](A)p.[moe](G)[sp].[moe](T)}$$$$ (last 3' nucleoside missing) — higher, 4.5 score 0-7
- RNA1{[moe](A)[sp].[moe]([m5C])p.[moe](T)p.[moe]([m5C])p.[moe](T)[sp].d(A)[sp].d(T)[sp].d(G)[sp].d(T)[sp].d(T)[sp].d(T)[sp].d(T)[sp].d([m5C])[sp].d([m5C])[sp].d(A)[sp].[moe](G)p.[moe](T)p.[moe](G)[sp].[moe]([m5C])}$$$$ (last 3' nucleoside missing) — higher, 2 score 0-7
- RNA1{[moe](A)[sp].[moe]([m5C])p.[moe](T)p.[moe]([m5C])p.[moe](T)p.[moe](A)p.d(T)[sp].d(G)[sp].d(T)[sp].d(T)[sp].d(T)[sp].d(T)[sp].d([m5C])[sp].d([m5C])[sp].d(A)[sp].d(G)[sp].[moe](T)p.[moe](G)[sp].[moe]([m5C])}$$$$ (last 3' nucleoside missing) — lower, 1.25 score 0-7
- RNA1{[moe](A)[sp].[moe]([m5C])p.[moe](T)p.[moe]([m5C])p.[moe](T)p.d(A)[sp].d(T)[sp].d(G)[sp].d(T)[sp].d(T)[sp].d(T)[sp].d(T)[sp].d([m5C])[sp].d([m5C])[sp].[moe](A)[sp].[moe](G)p.[moe](T)p.[moe](G)}$$$$ (last 3' nucleoside missing) — higher, 2.25 score 0-7
- RNA1{[moe](A)[sp].[moe]([m5C])p.[moe](T)p.[moe]([m5C])p.d(T)[sp].d(A)[sp].d(T)[sp].d(G)[sp].d(T)[sp].d(T)[sp].d(T)[sp].d(T)[sp].d([m5C])[sp].d([m5C])[sp].[moe](A)p.[moe](G)p.[moe](T)p.[moe](G)[sp].[moe]([m5C])}$$$$ (last 3' nucleoside missing) — lower, 1.5 score 0-7
- RNA1{[moe](A)[sp].[moe]([m5C])p.[moe](T)p.d([m5C])[sp].d(T)[sp].d(A)[sp].d(T)[sp].d(G)[sp].d(T)[sp].d(T)[sp].d(T)[sp].d(T)[sp].d([m5C])[sp].[moe]([m5C])p.[moe](A)p.[moe](G)p.[moe](T)p.[moe](G)[sp].[moe]([m5C])}$$$$ (last 3' nucleoside missing) — lower, 1.5 score 0-7
- RNA1{[moe](A)[sp].[moe]([m5C])p.[moe]([m5C])p.[moe](A)p.[moe](T)[sp].d(A)[sp].d(T)[sp].d(A)[sp].d([m5C])[sp].d([m5C])[sp].d(A)[sp].d(T)[sp].d(G)[sp].d(T)[sp].d(A)[sp].[moe]([m5C])p.[moe](A)p.[moe](G)[sp].[moe](T)}$$$$ (last 3' nucleoside missing) — higher, 4.75 score 0-7
- RNA1{[moe](G)[sp].[moe](A)p.[moe](G)p.[moe](T)p.[moe](G)[sp].d(A)[sp].d(A)[sp].d(T)[sp].d(T)[sp].d(A)[sp].d(T)[sp].d(T)[sp].d(T)[sp].d(T)[sp].d([m5C])[sp].[moe](T)p.[moe](T)p.[moe]([m5C])[sp].[moe](T)}$$$$ (last 3' nucleoside missing) — higher, 2 score 0-7
- RNA1{[moe](G)[sp].[moe](A)p.[moe](G)p.[moe]([m5C])p.[moe](A)[sp].d(A)[sp].d(T)[sp].d(A)[sp].d(T)[sp].d(A)[sp].d(T)[sp].d(T)[sp].d([m5C])[sp].d(A)[sp].d([m5C])[sp].[moe]([m5C])p.[moe](A)p.[moe](A)[sp].[moe](A)}$$$$ (last 3' nucleoside missing) — higher, 2.5 score 0-7
- RNA1{[moe](G)[sp].[moe](A)p.[moe](T)p.[moe](T)p.[moe](G)[sp].d(T)[sp].d([m5C])[sp].d(T)[sp].d([m5C])[sp].d([m5C])[sp].d([m5C])[sp].d(T)[sp].d(A)[sp].d(T)[sp].d(T)[sp].[moe]([m5C])p.[moe](T)p.[moe](T)[sp].[moe](T)}$$$$ (last 3' nucleoside missing) — higher, 5.5 score 0-7
- RNA1{[moe](G)[sp].[moe](G)p.[moe](A)p.[moe](A)p.[moe](T)[sp].d(G)[sp].d([m5C])[sp].d([m5C])[sp].d(A)[sp].d([m5C])[sp].d(A)[sp].d(T)[sp].d(A)[sp].d(T)[sp].d(A)[sp].[moe](G)p.[moe](G)p.[moe](G)[sp].[moe](T)}$$$$ (last 3' nucleoside missing) — higher, 4 score 0-7
- RNA1{[moe](G)[sp].[moe](G)p.[moe](G)p.[moe](A)p.[moe](T)[sp].d(G)[sp].d(A)[sp].d(T)[sp].d([m5C])[sp].d(T)[sp].d(G)[sp].d([m5C])[sp].d(A)[sp].d(A)[sp].d(T)[sp].[moe](T)p.[moe](G)p.[moe](T)[sp].[moe](T)}$$$$ (last 3' nucleoside missing) — higher, 4 score 0-7
- RNA1{[moe](G)[sp].[moe](G)p.[moe](T)p.[moe](G)p.[moe](A)[sp].d(T)[sp].d(T)[sp].d(T)[sp].d(T)[sp].d(T)[sp].d(T)[sp].d([m5C])[sp].d([m5C])[sp].d(T)[sp].d(T)[sp].[moe](T)p.[moe]([m5C])p.[moe](T)[sp].[moe](T)}$$$$ (last 3' nucleoside missing) — lower, 1 score 0-7
- RNA1{[moe](G)[sp].[moe](G)p.[moe](T)p.[moe](T)p.[moe](A)[sp].d(G)[sp].d([m5C])[sp].d(T)[sp].d(T)[sp].d(T)[sp].d(T)[sp].d(T)[sp].d(T)[sp].d(T)[sp].d([m5C])[sp].[moe](A)p.[moe]([m5C])p.[moe](T)[sp].[moe](G)}$$$$ (last 3' nucleoside missing) — higher, 4.75 score 0-7
- RNA1{[moe](G)[sp].[moe](G)p.[moe](T)p.[moe](T)p.[moe](A)[sp].d([m5C])[sp].d(A)[sp].d(T)[sp].d(A)[sp].d(A)[sp].d(T)[sp].d(G)[sp].d(T)[sp].d(T)[sp].d([m5C])[sp].[moe](A)p.[moe](T)p.[moe](T)[sp].[moe](T)}$$$$ (last 3' nucleoside missing) — higher, 5 score 0-7
- RNA1{[moe](G)[sp].[moe](G)p.[moe](T)p.[moe](T)p.[moe](A)p.[moe]([m5C])p.d(A)[sp].d(T)[sp].d(A)[sp].d(A)[sp].d(T)[sp].d(G)[sp].d(T)[sp].d(T)[sp].d([m5C])[sp].d(A)[sp].[moe](T)p.[moe](T)[sp].[moe](T)}$$$$ (last 3' nucleoside missing) — higher, 3.75 score 0-7
- RNA1{[moe](G)[sp].[moe](G)p.[moe](T)p.[moe](T)p.[moe](T)[sp].d(T)[sp].d(T)[sp].d(G)[sp].d(A)[sp].d([m5C])[sp].d(A)[sp].d(A)[sp].d(T)[sp].d(T)[sp].d(A)[sp].[moe](T)p.[moe](G)p.[moe](A)[sp].[moe](G)}$$$$ (last 3' nucleoside missing) — higher, 5 score 0-7
- RNA1{[moe](G)[sp].[moe](G)p.[moe](T)p.[moe](T)p.[moe](T)[sp].d(T)[sp].d(T)[sp].d(G)[sp].d(G)[sp].d([m5C])[sp].d(T)[sp].d(T)[sp].d(A)[sp].d([m5C])[sp].d(T)[sp].[moe]([m5C])p.[moe](G)p.[moe](G)[sp].[moe]([m5C])}$$$$ (last 3' nucleoside missing) — higher, 4 score 0-7
